From US5610297A, “Peptides ketoamides” (Georgia Tech Research Corp., priority 1995, dated 1997)

What was measured:
[1] = target: Calpain II from rabbit muscle; test: Inhibition of calpain II (Suc-Leu-Tyr-AMC hydrolysis); assay type: biochemical
Method: (§1) Materials and Methods. HEPES, heparin, and A23187 were obtained from Calbiochem. Suc-Leu-Tyr-AMC and chromogenic substrates were obtained from Sigma. Calpain I was purified from human erythrocytes according to the method of Kitahara (Kitahara et al., J. Biochem. 95, 1759-1766) omitting the Blue-Sepharose step. Calpain II from rabbit muscle and cathepsin B were purchased from Sigma. Papain was purchased from Calbiochem.
(§2) Assay of Inhibitory Potency. Peptide α-ketoamides were assayed as reversible enzyme inhibitors. Various concentrations of inhibitors in Me2 SO were added to the assay mixture which contained buffer and substrate. The reaction was started by the addition of the enzyme and the hydrolysis rates were followed spectrophotometrically or fluorimetrically.
(§3) Calpain I from human erythrocytes and calpain II from rabbit were assayed using Suc-Leu-Tyr-AMC [Sasaki et al., J. Biol. Chem. 259, 12489-12494 (1984); incorporated herein by reference], and the AMC (7-amino-4-methylcoumarin) release was followed fluorimetrically (excitation at 380 nm, and emmision at 460 nm). Calpains were assayed in 25 mM Tris pH=8.0, 10 mM CaCl2. Fluorescence was followed using a Gilson FL-1A fluorometer or a Perkin-Elmer 203 Fluorescence spectrometer. Cathepsin B was assayed in 20 mM sodium acetate pH=5.2, 0.5 mM dithiothreitol using Bz-Phe-Val-Arg-p-nitroanilide as substrate. Alternately, cathepsin B was assayed with Z-Arg-Arg-AFC [Barrett and Kirschke, Methods Enzymol. 80, 535-561 (1981); incorporated herein by reference], and the AFC (7-amino-4-trifluoromethylcoumarin) release was followed fluorimetrically (excitation at 400 nm and emmision at 505 nm). Papain was assayed in 100 mM KPO4, 1 mM EDTA, 2.5 mM cysteine pH=6.0 using Bz-Arg-AMC or Bz-Arg-NA [Kanaoka et al., Chem. Plmrm. Bull. 25, 3126-3128 (1977); incorporated herein by reference] as a substrate. The AMC (7-amino-4-methylcoumarin) release was followed fluorimetrically (excitation at 380 nm, and emmision at 460 nm). Enzymatic hydrolysis rates were measured at various substrate and inhibitor concentrations, and KI values were determined by either Lineweaver-Burk plots or Dixon plots.
(§4) A 0.1M Hepes, 0.5M NaCl, pH 7.5 buffer was utilized for human leukocyte elastase (HLE), porcine pancreatic elastase (PPE), chymotrypsin and cathepsin G. A 0.1 Hepes, 0.01M CaCl2, pH 7.5 buffer was utilized for trypsin, plasmin, and coagulation enzymes. A 50 mM Tris-HCl, 2 mM EDTA, 5 mM cysteine, pH 7.5 was used as a buffer for papain. A 88 mM KH2 PO4, 12 mM Na2 HPO4, 1.33 mM EDTA, 2.7 mM cysteine, pH 6.0 solution was used as a buffer for cathepsin B. A 20 mM Hepes, 10 mM CaCl2, 10 mM mercatoethanol, pH 7.2 buffer was utilized for calpain I and calpain II.

Half-life in plasma = assay type: in vitro ADME; settings: unit inferred, unit assumed
[2] = system: Calpain-mediated breakdown of spectrin in platelets; test: Platelet membrane permeability assay; assay type: cell-based, rat; parameters: unit not given here; settings: numeric value, unit not given
Method: Platelet membrane permeability assay. Calpain-mediated breakdown of spectrin was measured by quantitative densitometry of the calpain-specific 150/155 kDa spectrin fragment doublet [see Siman et al., Proc. Natl. Acad. Sci. USA 81, 3572-3576 (1984)]. Platelets were isolated by a modification of the method of Ferrell and Martin [J. Biol. Chem. 264, 20723-20729 (1989)]. Blood (15-20 ml) was drawn from male Sprague-Dawley rats into 1/10th volume of 100 mM EDTA-citrate, and centrifuged 10 minutes at 2000 rpm in a clinical centrifuge at room temperature. […] Platelets were washed once in 15 ml buffer 1, then resuspended to 10^7 cells/ml in buffer 2 (136 mM NaCl, 2.7 mM KCl, 0.42 mM NaH2 PO4, 12 mM NaHCO3, 2mM MgCl, 1 mg/ml BSA (Sigma), 5.6 mM glucose, 20 mM HEPES (Sigma) pH 7.4) and allowed to "rest" for a minimum of 10 minutes at room temperature before use.
Inhibitors were added from stock solutions made fresh in DMSO. 100 μl platelets, suspended to 10^7 cells/ml in buffer 2, were incubated with 1 μl of an inhibitor solution for 5 minutes at room temperature prior to the addition of 2 mM Ca^2+ and 1 uM A23 187. After 10 minutes total exposure to inhibitor (5 minutes exposure to ionophore) at room temperature, platelets were reisolated at 14,000 rpm for 10 sec in a Beckman microfuge, dissolved in SDS-PAGE sample buffer, and heated to 90° C. for 3 minutes.
Samples were subjected to SDS-PAGE in 4-12% gradient mini gels (Novex) and transferred to nitrocellulose (Schleicher and Schuell 0.45 um) by electroblotting. Filters were blocked for 10 minutes in 0.25% gelatin, 1% BSA, 0.25% triton X100, 0.9% NaCl, 10 mM Tris-Cl pH 7.5, incubated overnight in the same solution containing antibody to rat spectrin, washed 3×10 minutes with 10 mM Tris-Cl pH 7.5, 0.5% triton X100, incubated 4 hours in wash buffer plus alkaline phosphatase conjugated goat anti-rabbit antibody (Biorad), and washed as above. Blots were developed using the Biorad AP conjugate substrate kit. Quantitative densitometry was used to obtain values for the intact spectrin bands and the 150/155 kDa breakdown product doublet.

[3] = target: porcine pancreatic elastase (PPE) (Sus scrofa, UniProt P00772); test: Inhibition of PP elastase (Suc-Ala-Ala-Ala-NA hydrolysis); assay type: biochemical
Chain of porcine pancreatic elastase (PPE) (P00772 27-266): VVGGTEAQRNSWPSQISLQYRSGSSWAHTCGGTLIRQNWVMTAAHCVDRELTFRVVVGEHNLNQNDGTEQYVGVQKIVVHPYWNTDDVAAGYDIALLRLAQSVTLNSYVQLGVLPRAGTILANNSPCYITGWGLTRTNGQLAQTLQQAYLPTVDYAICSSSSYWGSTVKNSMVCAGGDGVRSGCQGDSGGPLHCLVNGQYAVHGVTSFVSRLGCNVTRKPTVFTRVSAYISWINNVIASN
Method: as §2, §4
HLE and PPE were assayed with MeO-Suc-Ala-Ala-Pro-Val-NA and Suc-Ala-Ala-Ala-NA, respectively [Nakajima et al., J. Biol. Chem. 254, 4027-4032 (1979); incorporated herein by reference]. Human leukocyte cathepsin G and chymotrypsin Aα were assayed with Suc-Val-Pro-Phe-NA [Tanaka et al., Biochemistry 24, 2040-2047 (1985); incorporated herein by reference]. The hydrolysis of peptide 4-nitroanilides was measured at 410 nm [ε410 =8800 M^-1 cm^-1; Erlanger et al., Arch. Biochem. Biophys. 95, pp 271-278 (1961); incorporated herein by reference]. Trypsin, thrombin, human plasma kallikrein, porcine pancreatic kallikrein, human factor XIa, and human plasmin were assayed with Z-Arg-SBzl or Z-Gly-Arg-SBu-i [McRae et al., Biochemistry 20, 7196-7206 (1981); incorporated herein by reference]. All peptide thioester hydrolysis rates were measured with assay mixtures containing 4,4'-dithiodipyridine [ε324 =19800 M^-1 cm^-1; Grasetti & Murray, Arch. Biochem. Biophys. 119, 41-49 (1967); incorporated herein by reference].

Half-life in liver = assay type: in vitro ADME; settings: unit inferred, unit assumed
cathepsin B = test: Inhibition of cathepsin B; assay type: biochemical; settings: read-out: KI Cath B
Method: as §1, §2, §3, §4

Structure (SMILES) | Ki [1] [µM] | t 1/2 plasma (Half-life in plasma) [h] | platelet (Activity in the Platelet Assay) [2] | Ki [3] [µM] | t 1/2 liver (Half-life in liver) [h] | Ki (cathepsin B) [µM]
CCNC(=O)C(=O)[C@H](CC)NC(=O)[C@H](CC(C)C)NC(=O)OCc1ccccc1 [Z--Leu--Abu--CONH--Et, Z-Leu-Abu-CONH-Et] | 0.23 | > 1 | 1.5 | 65 | > 1 | 2.4
CCCCNC(=O)C(=O)C(CC)NC(=O)C(CC(C)C)NC(=O)OCc1ccccc1 (stereo not drawn) [Z--Leu--Abu--CONH--nBu, Z-Leu-Abu-CONH-nBu] | – | > 1 | 2.0 | 5 | > 1 | 13
CCNC(=O)C(=O)[C@H](Cc1ccccc1)NC(=O)[C@H](CC(C)C)NC(=O)OCc1ccccc1 [Z--Leu--Phe--CONH--Et, Z-Leu-Phe-CONH-Et] | 0.32 | > 1 | 1.7 | > 150 | > 1 | 6
CCCNC(=O)C(=O)C(Cc1ccccc1)NC(=O)C(CC(C)C)NC(=O)OCc1ccccc1 (stereo not drawn) [Z--Leu--Phe--CONH--nPr, Z-Leu-Phe-CONH-nPr] | 0.05 | > 1 | 24 | > 300 | > 1 | 3
